In one test the test system is Escherichia coli. The test is described as follows: Susceptibility testing (MIC) Assay 2, broth microdilution. It is filed as cell-based. To be noted: K12, read-out: Eco MIC.
The next test concerns Pseudomonas aeruginosa. The test is described as above. It is filed as cell-based. To be noted: PAO1, read-out: Pae MIC.
The next test concerns Haemophilus influenzae. The description is as above. It is filed as cell-based. To be noted: ATCC51907, Haemophilus influenzae, ATCC 51907, in vivo strain, read-out: Hin MIC.
The test system of a further test is Klebsiella pneumoniae. The test is described as above. It is filed as cell-based. To be noted: clinical isolate, mucoid, read-out: Kpn MIC.
The subject of another test is Streptococcus pyogenes. As to the kind of experiment: Susceptibility testing (MIC) Assay 1, broth microdilution. It is filed as cell-based. To be noted: Streptococcus pyogenes, Streptococcus pyrgenes, in vivo strain; read-out: Spy MIC.
Another test has as its system Staphylococcus aureus. The description is as above. It counts as cell-based. To be noted: Staphylococcus aureus.
The next test has as its system Streptococcus pneumoniae. Described as above. It counts as cell-based.
Test [1] has as its target Escherichia coli DNA gyrase A/B tetramer (Escherichia coli (strain K12), UniProt P0AES4+P0AES6). The test is described as follows: DNA gyrase supercoiling activity fluorescence polarisation assay. It counts as biochemical. To be noted: Eco Gyr FP Mean IC50, E. coli DNA gyrase supercoiling, 0.3 mM ATP. In short, it runs like this: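 IC50 derived by nonlinear regression from BODIPY-FL fluorescence anisotropy, read 60 min after quenching with labelled triplex-forming probe (pH 3.5). Reaction: 5 nM gyrase tetramer, 130 micrograms/mL relaxed plasmid, 0.3 mM ATP, 4 mM MgCl2, pH 7.5, typically 30 min at ambient temperature, 5-10 compound concentrations.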

Where [2] appears, read: Staphylococcus aureus in vivo strain, MSQS, read-out: Sau(d) MIC.
The mark [3] stands for this setting: in vivo strain, MRQR, read-out: Sau(e) MIC.
The mark [4] stands for this setting: in vivo strain (footnote b), read-out: Spn(b) MIC.
[5] abbreviates: in vivo strain (footnote c), read-out: Spn(c) MIC.

In brackets after ≈: the same amount, converted by molar mass. Like-named read-outs stand apart in the source and are kept apart here. A value given as a limit tells only on which side of the number the result lay.

The record followed here is US8889671B2, “Compounds and methods for treating bacterial infections” (AstraZeneca AB, priority 2013, dated 2014).

`C[C@@H]1CN2c3c(cc4c(N5C(=O)OC[C@H]5c5ccncc5)noc4c3F)CC3(C(=O)NC(=O)NC3=O)[C@H]2[C@H](C)O1` [Example 57, (2R,4S,4aS)-11-Fluoro-2,4-dimethyl-8-((R)-2-oxo-4-(pyridin-4-yl)oxazolidin-3-yl)-2,4,4a,6-tetrahydro-1H,1′H-spiro[isoxazolo[4,5-g][1,4]oxazino[4,3-a]quinoline-5,5′-pyrimidine]-2′,4′,6′(3′H)-trione]: the MIC in the test on Escherichia coli is 100 µM (≈ 55.1 µg/mL); in the test on Pseudomonas aeruginosa, greater than 200 µM; with Haemophilus influenzae, 0.39 µM (≈ 0.215 µg/mL); with Klebsiella pneumoniae, greater than 200 µM; in the test on Streptococcus pyogenes, 0.78 µM (≈ 0.429 µg/mL); in the test on Staphylococcus aureus (setting [2]) it was 1.6 µM (≈ 0.881 µg/mL). Besides, the MIC in the test on Staphylococcus aureus (setting [3]) was determined as 6.2 µM (≈ 3.41 µg/mL); in the test on Staphylococcus aureus (serum, read-out: Sau(f) MIC), 3.1 µM (≈ 1.71 µg/mL); in the test on Streptococcus pneumoniae (setting [4]), 0.78 µM (≈ 0.429 µg/mL); with Streptococcus pneumoniae (setting [5]), 1.6 µM (≈ 0.881 µg/mL). For the same compound, the midpoint of inhibition in test [1], the IC50, lay at 760 nM.

Regarding `C[C@@H]1CN2c3c(cc4c(N5C(=O)OC[C@@H]5CC#N)noc4c3F)CC3(C(=O)NC(=O)NC3=O)[C@H]2[C@H](C)O1` [Example 71, {(4S)-3-[(2R,4S,4aS)-11-Fluoro-2,4-dimethyl-2′,4′,6′-trioxo-1,1′,2,3′,4,4′,4a,6′-octahydro-2′H,6H-spiro[1,4-oxazino[4,3-a][1,2]oxazolo[4,5-g]quinoline-5,5′-pyrimidin]-8-yl]-2-oxo-1,3-oxazolidin-4-yl}acetonitrile], the MIC in the test on Escherichia coli is 50 µM (≈ 25.6 µg/mL); in the test on Pseudomonas aeruginosa, greater than 200 µM; in the test on Haemophilus influenzae, 1.6 µM (≈ 0.82 µg/mL); with Klebsiella pneumoniae, greater than 200 µM; in the test with Streptococcus pyogenes, 1.6 µM (≈ 0.82 µg/mL); in the test on Staphylococcus aureus (setting [2]), 3.1 µM (≈ 1.59 µg/mL). Besides, the MIC with Staphylococcus aureus (setting [3]) came to 6.2 µM (≈ 3.18 µg/mL); in the test with Staphylococcus aureus (serum, read-out: Sau(f) MIC), 3.1 µM (≈ 1.59 µg/mL); with Streptococcus pneumoniae (setting [4]) it was 1.6 µM (≈ 0.82 µg/mL); in the test on Streptococcus pneumoniae (setting [5]) it was 1.6 µM (≈ 0.82 µg/mL). This compound came in with an IC50 in test [1] of 160 nM.

As for `C[C@@H]1CN2c3c(cc4c(N5C(=O)OC[C@@H]5c5ncnn5C)noc4c3F)CC3(C(=O)NC(=O)NC3=O)[C@H]2[C@H](C)O1` [Example 68, (2R,4S,4aS)-11-Fluoro-2,4-dimethyl-8-((S)-4-(1-methyl-1H-1,2,4-triazol-5-yl)-2-oxooxazolidin-3-yl)-2,4,4a,6-tetrahydro-1H,1′H-spiro[isoxazolo[4,5-g][1,4]oxazino[4,3-a]quinoline-5,5′-pyrimidine]-2′,4′,6′(3′H)-trione], the MIC is 200 µM (≈ 111 µg/mL) in the test with Escherichia coli; greater than 200 µM in the test with Pseudomonas aeruginosa; 1.6 µM (≈ 0.887 µg/mL) in the test with Haemophilus influenzae; greater than 200 µM with Klebsiella pneumoniae; 3.1 µM (≈ 1.72 µg/mL) in the test on Streptococcus pyogenes; 12 µM (≈ 6.65 µg/mL) in the test on Staphylococcus aureus (setting [2]). In addition, the MIC in the test on Staphylococcus aureus (setting [3]) amounted to 25 µM (≈ 13.9 µg/mL); in the test with Staphylococcus aureus (serum, read-out: Sau(f) MIC), 12 µM (≈ 6.65 µg/mL); with Streptococcus pneumoniae (setting [4]) it was 3.1 µM (≈ 1.72 µg/mL); with Streptococcus pneumoniae (setting [5]) it was 6.2 µM (≈ 3.44 µg/mL). The same compound came in with an IC50 in test [1] of 220 nM.

For `COC[C@H]1COC(=O)N1c1noc2c(F)c3c(cc12)CC1(C(=O)NC(=O)NC1=O)[C@H]1[C@H](C)O[C@H](C)CN31` (single isomer, unassigned) [Example 17], the MIC is 50 µM (≈ 25.9 µg/mL) in the test on Escherichia coli; greater than 200 µM in the test on Pseudomonas aeruginosa; 0.39 µM (≈ 0.202 µg/mL) with Haemophilus influenzae; greater than 200 µM in the test with Klebsiella pneumoniae; 0.55 µM (≈ 0.285 µg/mL) with Streptococcus pyogenes; 0.28 µM (≈ 0.145 µg/mL) in the test on Staphylococcus aureus (setting [2]). Moreover, the MIC with Staphylococcus aureus (setting [3]) was 0.78 µM (≈ 0.404 µg/mL); with Staphylococcus aureus (serum, read-out: Sau(f) MIC) it was 0.39 µM (≈ 0.202 µg/mL); in the test with Streptococcus pneumoniae (setting [4]), 0.55 µM (≈ 0.285 µg/mL); in the test on Streptococcus pneumoniae (setting [5]) it was 0.55 µM (≈ 0.285 µg/mL). The compound further returned an IC50 in test [1] of 140 nM.

Turning to `C[C@@H]1CN2c3c(cc4c(N5C[C@H](CF)OC5=O)noc4c3F)CC3(C(=O)NC(=O)NC3=O)[C@H]2[C@H](C)O1` [Example 38, (2R,4S,4aS)-11-Fluoro-8-[(5R)-5-(fluoromethyl)-2-oxo-1,3-oxazolidin-3-yl]-2,4-dimethyl-1,2,4,4a-tetrahydro-2′H,6H-spiro[1,4-oxazino[4,3-a][1,2]oxazolo[4,5-g]quinoline-5,5′-pyrimidine]-2′,4′,6′(1′H,3′H)-trione], the MIC was 25 µM (≈ 12.6 µg/mL) in the test on Escherichia coli; greater than 200 µM in the test with Pseudomonas aeruginosa; 0.39 µM (≈ 0.197 µg/mL) in the test with Haemophilus influenzae; 200 µM (≈ 101 µg/mL) in the test on Klebsiella pneumoniae; less than 0.2 µM with Streptococcus pyogenes; less than 0.2 µM in the test with Staphylococcus aureus (setting [2]). Further, the MIC with Staphylococcus aureus (setting [3]) stood at 1.65 µM (≈ 0.834 µg/mL); with Staphylococcus aureus (serum, read-out: Sau(f) MIC) it was 0.78 µM (≈ 0.394 µg/mL); in the test on Streptococcus pneumoniae (setting [4]), 0.39 µM (≈ 0.197 µg/mL); in the test on Streptococcus pneumoniae (setting [5]) it was 0.39 µM (≈ 0.197 µg/mL). The compound further came in with an IC50 in test [1] of 67 nM.

By IC50 is commonly meant the point on the concentration scale where inhibition reaches its midpoint. A higher IC50 goes with lower potency.
